# According to patent US20250304623A1, “PEPTIDES FOR INTRACELLULAR DELIVERY” (UNIVERSIDADE DE SANTIAGO DE COMPOSTELA, priority 2022, published 2025):
# *: point of attachment. NHNH2 = NN*
# Columns and labels:
# Assay type in all cases: cell-based
# [1] = test system: Hek293 cells expressing EGFP; assay: EGFP-targeting siRNA delivery (GFP silencing vs siMOCK), Hek293
# Experimental: (§1) To generate an EGFP expressing HeLa cell line, HeLa cells were transfected with EGFP pDNA (pEGFP-C1, Clontech) and stable transfectants were selected with 400 μg/mL of G-418 (Millipore). Green clones were selected by epifluorescence microscopy and tested for EGFP expression stability through several passages. […] All other EGFP-expressing cell lines were obtained in a similar way from parent non-EGFP-expressing cell lines.
# (§2) Cells expressing EGFP were seeded in a 96 well plate the day before the experiment at a concentration of 50,000 cell/mL (100 μL/w) in DMEM+10% FBS+1% Gln-Abt. For robotic library screening, the delivery of an EGFP-targeting siRNA (EGFP: enhanced green fluorescent protein, Ambion® Silencer® GFP Positive Control siRNA (siGFP) (AM4626)) in six different cell lines expressing EGFP was performed. […] The mixture was shaken for 30 min at room temperature (rt) before the addition to the cells. The cell medium was aspirated, and cells were washed twice with PBS. Finally, 50 μL of the solution of siRNA/amphiphile complexes were added to the cells and incubated for 4 h. After transfection, the medium was replaced by 100 μL of fresh DMEM supplemented with 10% FBS. The fluorescence knockdown was quantified after 72 h in a plate reader, by comparison with cells transfected with a non-targeting siRNA control (siMOCK, Silencer™ Negative Control No. 1 siRNA (siMOCK) (AM4611)). EGFP knockdown was compared with Lipofectamine® RNAiMAX silencing efficiency (30-60% depending on cell line, defined with a numeric value in the below tables). All experiments were done in triplicate.
# (§3) Tables 1-7: RLuc (pDNA) or EGFP (mRNA) expression levels were normalized to Lipofectamine reagents (value=1) and expressed as fold-times signal increase. In the case of siRNA, the siRNA treated cells fluorescence was compared with siMOCK control fluorescence, while Cas9-RNP mediated knockout was measured against the fluorescence of untreated cells. In both siRNA and Cas9-RNP, values are expressed as % fluorescence reduction. Amphiphile concentration was 5 μM in all cases. All experiments were performed in triplicate.
# (§4) Tables 20-25 show the mean (triplicates) percentage of GFP-silencing, accounted by fluorescence intensity decrease relative to a non-targeting siRNA (siMOCK) control, measured after the transfection of siRNA by different amphiphiles at different concentrations in a variety of cell lines. Background values, accounted by untreated control cells, were subtracted for processing.
# [2] = test system: HepG2 cells expressing EGFP; assay: EGFP-targeting siRNA delivery (GFP silencing vs siMOCK), HepG2
# Experimental: as §1, §2, §3, §4
# [3] = test system: ARPE19 cells expressing EGFP; assay: Cas9-RNP delivery against EGFP (gene editing, plate reader), ARPE19
# Experimental: as §1
# (§5) Cells expressing EGFP were seeded in a 96 well plate the day before the experiment at a concentration of 50,000 cell/mL (100 μL/w) in DMEM+10% FBS+1% Gln-Abt. For robotic library screening, the delivery of Cas9-RNP against EGFP (RNP designed to knock-out the gene encoding for the enhanced green fluorescent protein (EGFP)) was performed. For RNP assembly, 9.2 μL of crRNA and 9.2 μL of tracrRNA were mixed in 211.6 μL of Nuclease-Free Duplex Buffer (IDT), incubated for 5 min at 95° C. and slowly cooled at rt (see I. Lostalé-Seijo, et al. Peptide/Cas9 nanostructures for ribonucleoprotein cell membrane transport and gene edition, Chem. Sci., 2017). Cas9 protein was dissolved in DMEM at a final concentration of 4 μM and equal volumes of the RNA complex and Cas9 were mixed and incubated for 5 min at rt. 75 μL of the corresponding amphiphile concentrations were added to 5 μL of RNP at 2 μM. The mixture was shaken for 30 min at room temperature before the addition to the cells. The cell medium was aspirated, and cells were washed twice with PBS. Cells were covered with 30 μL of DMEM and 20 μL of the RNP/amphiphile complexes were added to the cells (final peptide concentrations=2.5, 5 and 10 μM; final Cas9-RNP concentration=50 nM) and incubated for 4 h. After the incubation, the medium was replaced by 100 μL of fresh DMEM supplemented with 10% FBS. The total EGFP fluorescence was quantified after 72 h in a plate reader (FIG. 2, Table 1 (right) and Table 6). All experiments were done in triplicate. […]
# (§6) Tables 26-31 show the mean (triplicates) percentage of gene editing, accounted by GFP fluorescence intensity decrease (% of reduction), measured after the transfection of Cas9-RNP by different amphiphiles at different concentrations in a variety of cell lines. Background values, accounted by untreated control cells, were subtracted for processing.
# [4] = test system: HepG2 cells expressing EGFP; assay: Cas9-RNP delivery against EGFP (gene editing, plate reader), HepG2
# Experimental: as §1, §5, §6
# [5] = test system: ARPE19 cells expressing EGFP; assay: EGFP-targeting siRNA delivery (GFP silencing vs siMOCK), ARPE19
# Experimental: as §1, §2, §3, §4
substance,measurement,setting,value
Ac-RRLK*RLK*RRLK*RL-NH2 [Peptide 13.3],percentage of GFP-silencing relative to siMOCK,"[1]; Dodecanal, 5 μM",52%
same,percentage of GFP-silencing relative to siMOCK,"[1]; Dodecanal, 10 μM",44%
same,percentage of GFP-silencing relative to siMOCK,"[1]; Dodecanal, 15 μM",48%
same,percentage of GFP-silencing relative to siMOCK,"[1]; Myristoleyl, 15 μM",25%
same,percentage of GFP-silencing relative to siMOCK,"[1]; Oleyl, 10 μM",2%
same,percentage of GFP-silencing relative to siMOCK,"[1]; Palmitoleyl, 5 μM",42%
same,percentage of GFP-silencing relative to siMOCK,"[1]; Petroselinyl, 5 μM",18%
same,percentage of GFP-silencing relative to siMOCK,"[1]; Petroselinyl, 10 μM",0%
same,percentage of GFP-silencing relative to siMOCK,"[1]; Petroselinyl, 15 μM",20%
same,percentage of GFP-silencing relative to siMOCK,"[2]; Dodecanal, 10 μM",31%
same,percentage of GFP-silencing relative to siMOCK,"[2]; Dodecanal, 15 μM",33%
same,percentage of GFP-silencing relative to siMOCK,"[2]; Myristoleyl, 5 μM",13%
same,percentage of GFP-silencing relative to siMOCK,"[2]; Myristoleyl, 10 μM",20%
same,percentage of GFP-silencing relative to siMOCK,"[2]; Palmitoleyl, 5 μM",19%
same,percentage of GFP-silencing relative to siMOCK,"[2]; Palmitoleyl, 10 μM",46%
same,percentage of GFP-silencing relative to siMOCK,"[2]; Palmitoleyl, 15 μM",10%
same,percentage of GFP-silencing relative to siMOCK,"[2]; Petroselinyl, 5 μM",9%
same,percentage of GFP-silencing relative to siMOCK,"[2]; Petroselinyl, 10 μM",41%
same,percentage of GFP-silencing relative to siMOCK,"[2]; Petroselinyl, 15 μM",8%
same,"percentage of gene editing, GFP fluorescence intensity decrease (% of reduction)","[3]; Dodecanal, 10 μM",13%
same,"percentage of gene editing, GFP fluorescence intensity decrease (% of reduction)","[3]; Dodecanal, 15 μM",18%
same,"percentage of gene editing, GFP fluorescence intensity decrease (% of reduction)","[3]; Myristoleyl, 10 μM",32%
same,"percentage of gene editing, GFP fluorescence intensity decrease (% of reduction)","[3]; Myristoleyl, 15 μM",38%
same,"percentage of gene editing, GFP fluorescence intensity decrease (% of reduction)","[3]; Oleyl, 5 μM",20%
same,"percentage of gene editing, GFP fluorescence intensity decrease (% of reduction)","[3]; Petroselinyl, 15 μM",−11%
same,"percentage of gene editing, GFP fluorescence intensity decrease (% of reduction)","[4]; Dodecanal, 5 μM",−27%
same,"percentage of gene editing, GFP fluorescence intensity decrease (% of reduction)","[4]; Dodecanal, 10 μM",−11%
same,"percentage of gene editing, GFP fluorescence intensity decrease (% of reduction)","[4]; Myristoleyl, 5 μM",−22%
same,"percentage of gene editing, GFP fluorescence intensity decrease (% of reduction)","[4]; Myristoleyl, 10 μM",3%
same,"percentage of gene editing, GFP fluorescence intensity decrease (% of reduction)","[4]; Palmitoleyl, 5 μM",−30%
same,"percentage of gene editing, GFP fluorescence intensity decrease (% of reduction)","[4]; Palmitoleyl, 10 μM",−19%
same,"percentage of gene editing, GFP fluorescence intensity decrease (% of reduction)","[4]; Petroselinyl, 5 μM",−20%
same,percentage of GFP-silencing relative to siMOCK,"[5]; Dodecanal, 5 μM",29%
same,percentage of GFP-silencing relative to siMOCK,"[5]; Dodecanal, 10 μM",51%
same,percentage of GFP-silencing relative to siMOCK,"[5]; Dodecanal, 15 μM",37%
same,percentage of GFP-silencing relative to siMOCK,"[5]; Palmitoleyl, 10 μM",11%
same,percentage of GFP-silencing relative to siMOCK,"[5]; Petroselinyl, 5 μM",11%
same,percentage of GFP-silencing relative to siMOCK,"[5]; Petroselinyl, 10 μM",13%
same,percentage of GFP-silencing relative to siMOCK,"[5]; Petroselinyl, 15 μM",−42%
"Ac-RRLK*RLLRRLK*RL-NH2 (Ac-RRLK(NHNH2)RLLRRLK(NHNH2)RL-NH2; not fully specified; printed as Ac-RRLK*RLLRRLK*RL-NH2; also: K*4,K*11: native or modified lysine (ε-amide to a linker)) [Peptide 13.2]",percentage of GFP-silencing relative to siMOCK,"[1]; Oleyl, 10 μM",−7%
same,percentage of GFP-silencing relative to siMOCK,"[1]; Oleyl, 15 μM",17%
same,percentage of GFP-silencing relative to siMOCK,"[2]; Dodecanal, 10 μM",13%
same,percentage of GFP-silencing relative to siMOCK,"[2]; Dodecanal, 15 μM",−5%
same,percentage of GFP-silencing relative to siMOCK,"[2]; Palmitoleyl, 5 μM",16%
same,percentage of GFP-silencing relative to siMOCK,"[2]; Palmitoleyl, 10 μM",4%
same,percentage of GFP-silencing relative to siMOCK,"[2]; Palmitoleyl, 15 μM",7%
same,percentage of GFP-silencing relative to siMOCK,"[2]; Petroselinyl, 5 μM",−11%
same,percentage of GFP-silencing relative to siMOCK,"[2]; Petroselinyl, 10 μM",2%
same,percentage of GFP-silencing relative to siMOCK,"[2]; Petroselinyl, 15 μM",0%
same,"percentage of gene editing, GFP fluorescence intensity decrease (% of reduction)","[3]; Oleyl, 5 μM",13%
same,"percentage of gene editing, GFP fluorescence intensity decrease (% of reduction)","[3]; Oleyl, 10 μM",−7%
same,"percentage of gene editing, GFP fluorescence intensity decrease (% of reduction)","[4]; Dodecanal, 5 μM",−36%
same,"percentage of gene editing, GFP fluorescence intensity decrease (% of reduction)","[4]; Dodecanal, 10 μM",−41%
same,"percentage of gene editing, GFP fluorescence intensity decrease (% of reduction)","[4]; Dodecanal, 15 μM",9%
same,"percentage of gene editing, GFP fluorescence intensity decrease (% of reduction)","[4]; Oleyl, 10 μM",−21%
same,"percentage of gene editing, GFP fluorescence intensity decrease (% of reduction)","[4]; Oleyl, 15 μM",−33%
same,percentage of GFP-silencing relative to siMOCK,"[5]; Oleyl, 10 μM",22%
same,percentage of GFP-silencing relative to siMOCK,"[5]; Oleyl, 15 μM",1%
